Experimental data as given in PubChem BioAssay (NCI).
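48-hour exposure; five concentrations; linearly interpolated endpoints. The concentration for 50% growth inhibition is given as GI50. TGI marks complete inhibition of growth.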

Assays:
Assay in all cases: DTP human tumour cell line panel, 48 h
[1] = tested on: MCF7 breast
[2] = tested on: RXF 393 renal
[3] = tested on: MDA-MB-231 breast
[4] = tested on: MOLT-4 leukemia
[5] = tested on: NCI-H522 lung
[6] = tested on: SK-OV-3 ovarian
[7] = tested on: UO-31 renal
[8] = tested on: CAKI-1 renal
[9] = tested on: HS 578T breast
[10] = tested on: OVCAR-8 ovarian
[11] = tested on: OVCAR-5 ovarian
[12] = tested on: SNB-19 CNS
[13] = tested on: MALME-3M melanoma

Structure (SMILES) | TGI [1] | TGI [2] | TGI [3] | TGI [4] | TGI [5] | TGI [6] | TGI [7] | TGI [8] | TGI [9] | TGI [10] | TGI [11] | TGI [12] | TGI [13] | GI50 [8]
CN1C(=O)C(C#N)C2C[C@@]1(C)Oc1ccccc12 (some centres not stated) | > 100 µM | > 100 µM | > 100 µM | > 100 µM | > 100 µM | > 100 µM | > 100 µM | > 100 µM | > 100 µM | > 100 µM | > 100 µM | > 100 µM | – | –
CC(=O)c1c2c(cc3c1CC1(C3)Cc3cc4c(c(C(C)=O)c3C1)CCCC4)CCCC2 | > 100 µM | > 100 µM | > 100 µM | 76.5 µM | > 100 µM | > 100 µM | 0.314 µM | – | > 100 µM | > 100 µM | > 100 µM | – | > 100 µM | –
CNC(=O)OCc1nc(N=[N+]=[N-])n(C)c1COC(=O)NC | > 100 µM | 54.5 µM | > 100 µM | 88.3 µM | 40.7 µM | – | > 10 µM | 61 µM | > 100 µM | > 100 µM | > 100 µM | – | > 100 µM | –
Cc1c(-c2ccccc2)c(C#N)c2nnn(C)c(=O)n12 | > 100 µM | > 100 µM | > 100 µM | – | > 100 µM | > 100 µM | > 100 µM | > 100 µM | > 100 µM | > 100 µM | > 100 µM | > 100 µM | > 100 µM | –
COc1cc(OC)c2nc(C)c3c(c2c1)OCC3 | > 100 µM | 62.6 µM | 52.9 µM | > 100 µM | > 100 µM | – | > 100 µM | 72 µM | > 100 µM | > 100 µM | > 100 µM | > 100 µM | > 100 µM | –
CC1(C)N([O-])[N+](=O)C1(Br)c1ccccc1 (configuration not stated) | > 100 µM | > 100 µM | > 100 µM | > 100 µM | – | > 100 µM | > 100 µM | > 100 µM | > 100 µM | > 100 µM | > 100 µM | > 100 µM | > 100 µM | –
COC(=O)/C=C1/OC(c2ccc(C)cc2C)=CC1=O | 28.3 µM | 24.9 µM | 27.5 µM | > 100 µM | 43.3 µM | 33.1 µM | 30.5 µM | 34.5 µM | 81.7 µM | 37.4 µM | 31.7 µM | – | 29.9 µM | –
Cc1ccc(C2=Nn3c(nc4sc5c(c4c3=O)CCCC5)SC2)cc1 | > 100 µM | > 100 µM | > 100 µM | > 100 µM | > 100 µM | > 100 µM | > 100 µM | > 100 µM | > 100 µM | > 100 µM | > 100 µM | – | > 100 µM | –
N/N=C(/CC(O)(C(F)(F)F)C(F)(F)F)c1ccccc1 | > 10 µM | > 10 µM | > 10 µM | > 10 µM | > 10 µM | > 10 µM | – | > 10 µM | > 10 µM | > 10 µM | > 10 µM | > 10 µM | > 10 µM | –
CC(C)(C)OC(=O)NC(Cc1ccc(OCc2ccccc2)cn1)C(=O)O (configuration not stated) | > 100 µM | > 100 µM | > 100 µM | – | > 100 µM | – | > 100 µM | > 100 µM | > 100 µM | > 100 µM | > 100 µM | > 100 µM | > 100 µM | –
COc1cc(/C=C2\CC(C)C/C(=C\c3ccc(O)c(OC)c3)C2=O)ccc1O (configuration not stated) | 19.3 µM | 7.56 µM | 8.35 µM | 17.8 µM | 3.86 µM | 12.4 µM | 5.41 µM | – | 10.4 µM | 32.4 µM | 40.8 µM | 22.3 µM | 8.75 µM | –
COC1=CC(=O)c2c(n[nH]c2CCNC(=O)OCc2ccccc2)C1=O | 22.2 µM | – | 31.3 µM | 51.4 µM | 21.1 µM | – | 28.8 µM | – | 69.1 µM | 44.3 µM | 32.1 µM | 39.8 µM | 6.5 µM | –
O=c1cc(-c2ccc3ccccc3c2)[nH]c2ncccc12 | > 100 µM | – | > 100 µM | > 100 µM | 46 µM | > 100 µM | > 100 µM | > 100 µM | > 100 µM | > 100 µM | > 100 µM | > 100 µM | > 100 µM | 5.63 µM
CC(C)(C)OC(=O)NC(Cc1ccc(OCc2ccccc2)cn1)C(N)=O (configuration not stated) | > 100 µM | > 100 µM | > 100 µM | – | > 100 µM | – | > 100 µM | > 100 µM | > 100 µM | > 100 µM | > 100 µM | > 100 µM | > 100 µM | –
COc1ccc(C(c2cc(OC)c(OC)c(OC)c2)N2C(=O)CCC2C(=O)O)cc1 (configuration not stated) | > 100 µM | – | > 100 µM | > 100 µM | > 100 µM | > 100 µM | > 100 µM | > 100 µM | > 100 µM | > 100 µM | > 100 µM | > 100 µM | > 100 µM | –
O=[N+]([O-])c1cc2ccc1OCc1cccc(n1)COc1ccc(cc1[N+](=O)[O-])C=NCCCCCCCCN=C2 | > 100 µM | – | > 100 µM | > 100 µM | > 100 µM | – | > 100 µM | > 100 µM | > 100 µM | > 100 µM | > 100 µM | > 100 µM | > 100 µM | –
CCOC(=O)CON=c1c2ccccc2ccc2ccccc12 | > 100 µM | > 100 µM | > 100 µM | > 100 µM | – | > 100 µM | > 100 µM | > 100 µM | > 100 µM | > 100 µM | > 100 µM | > 100 µM | > 100 µM | –
O=C1OC(C2Cc3ccc4c(c3C2=O)CCCC4)c2ccccc21 (configuration not stated) | > 100 µM | – | > 100 µM | 47.5 µM | > 100 µM | > 100 µM | > 100 µM | > 100 µM | 82 µM | > 100 µM | > 100 µM | > 100 µM | > 100 µM | –
COc1ccc(OC2OC(CO)C(O)C(O)C2O)cc1 (configuration not stated) | > 100 µM | – | > 100 µM | > 100 µM | > 100 µM | > 100 µM | > 100 µM | > 100 µM | > 100 µM | > 100 µM | > 100 µM | > 100 µM | > 100 µM | –
